Usually stoichiometry N stands for the number of molecules, sites or subunits per partner or assembly.

Values joined by “and” are separate entries in the source; they are usually repeats but may differ in a detail not shown here. Identical values can stand only once.

The target in one series is T1, NucC (Vibrio metoecus, UniProt P0DUD6).
T1 construct: Codon-optimised synthetic gene in pEV5HisTEV, N-terminal His8 tag (TEV step as for VmeCmr), E. coli C43(DE3); trimeric species used
T1 sequence (P0DUD6 1-245): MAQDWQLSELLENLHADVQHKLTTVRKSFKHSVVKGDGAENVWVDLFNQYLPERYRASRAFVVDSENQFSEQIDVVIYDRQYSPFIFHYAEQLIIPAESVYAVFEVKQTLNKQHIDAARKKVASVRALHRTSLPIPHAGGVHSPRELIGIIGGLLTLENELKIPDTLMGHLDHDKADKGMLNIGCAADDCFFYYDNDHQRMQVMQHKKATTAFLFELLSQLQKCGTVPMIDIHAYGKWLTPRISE
In words: fluorogenic dsDNA (FAM/Iowa Black) cleavage, plate reader. Particulars: read-out: Act50. It is filed as biochemical.

Series [1] deals with the molecule itself. Put plainly: SEC; HiLoad 16/60 Superdex pg 200, 20 mM Tris-HCl, 250 mM NaCl, 10% (v/v) glycerol, pH 7.5; peaks at approximately 160 ml and 180 ml. (In general: SEC sorts molecules by how far they enter the pores of the column.)

Take `Nc1ncnc2c1ncn2[C@@H]1O[C@@H]2COP(=O)(O)O[C@H]3[C@@H](O)[C@H](n4cnc5c(N)ncnc54)O[C@@H]3COP(=O)(O)O[C@H]3[C@@H](O)[C@H](n4cnc5c(N)ncnc54)O[C@@H]3COP(=O)(O)O[C@H]2[C@H]1O` [cA3]: the EC50 at NucC worked out at 0.094 ± 0.004 nM.

B1: Vibrio metoecus NucC DNA endonuclease effector (enzyme, UniProt P0DUD6 1-245, looked up)
chain: MAQDWQLSELLENLHADVQHKLTTVRKSFKHSVVKGDGAENVWVDLFNQYLPERYRASRAFVVDSENQFSEQIDVVIYDRQYSPFIFHYAEQLIIPAESVYAVFEVKQTLNKQHIDAARKKVASVRALHRTSLPIPHAGGVHSPRELIGIIGGLLTLENELKIPDTLMGHLDHDKADKGMLNIGCAADDCFFYYDNDHQRMQVMQHKKATTAFLFELLSQLQKCGTVPMIDIHAYGKWLTPRISE
notes: NucC of the Vibrio metoecus type III-B CRISPR locus; source: E. coli C43(DE3), purified (HisTrap, TEV, second HisTrap, SEC on Superdex 200); not shown: His8, N-terminal, cleaved
For the molecule B1, in series [1], the “stoichiometry N” value was 6 and 3.

These data come from PMC8682760, “Specificity and sensitivity of an RNA targeting type III CRISPR complex coupled with a NucC endonuclease effector” (Nucleic Acids Research, 2021).
